Test results from US8618100B2, “Compounds with antibacterial activity against Clostridium” (Elanco Animal Health Ireland Limited, priority 2010, dated 2013).
Values after ≈ are worked out from the molar mass of the structure shown.

Experiments:
[1] = tested on: Escherichia coli; experiment: In-vitro test against several bacteria (D.1.3): E. coli; conditions: read-out: IC90 against E. coli
[2] = tested on: Acinetobacter baumanii; experiment: In-vitro test against several bacteria (D.1.3): A. baumanii; format: cell-based; conditions: Acinetobacter baumannii; Gram negative; Nutrient broth; 20-24 hours aerobic
Description: (§1) The plates were incubated at 37° C.

[3] = tested on: Klebsiella pneumoniae; experiment: In-vitro test against several bacteria (D.1.3): K. pneumoniae; conditions: read-out: IC90 against K. pneumoniae
[4] = tested on: Staphylococcus epidermidis; experiment: In-vitro test against several bacteria (D.1.3): S. epidermidis; conditions: for IC90: Staphylococcus epidermidis, read-out: IC90 against S. epidermidis
[5] = tested on: Listeria monocytogenes; experiment: In-vitro test against several bacteria (D.1.3): L. monocytogenes; conditions: read-out: IC90 against L. monocytogenes
[6] = tested on: Staphylococcus aureus; experiment: In-vitro test against several bacteria (D.1.3): S. aureus; conditions: for IC90: Staphylococcus aureus, read-out: IC90 against S. aureus
[7] = tested on: Pseudomonas aeruginosa; experiment: In-vitro test against several bacteria (D.1.3): P. aeruginosa; conditions: read-out: IC90 against P. aeruginosa
[8] = tested on: Clostridium perfringens (strain 56); experiment: microbe, parasite or virus in culture; format: cell-based; conditions: 24 h, read-out: IC90 against C. perfringens
[9] = tested on: Clostridium difficile (ATCC9689); experiment: In-vitro anti-bacterial activity against C. difficile (D.1.2); format: cell-based; conditions: Clostridioides difficile, Reinforced Clostridial broth, 37° C., 48 hours, anaerobic, OD 570 nm
[10] = tested on: Methicillin-Resistant Staphylococcus aureus; experiment: In-vitro test against several bacteria (D.1.3): Methicillin-Resistant S. aureus; conditions: for IC90: Staphylococcus aureus, read-out: IC90 against Methicillin-Resistant S. aureus
[11] = tested on: Moraxella catarrhalis; experiment: In-vitro test against several bacteria (D.1.3): M. catarrhalis; format: cell-based; conditions: Gram negative, Brain heart Infusion medium, 20-24 hours aerobic, read-out: IC90 against M. cattarhalis
Description: as §1

[12] = tested on: Enterococcus faecalis; experiment: In-vitro test against several bacteria (D.1.3): E. faecalis; format: cell-based; conditions: Gram positive, Todd Hewitt medium, 20-24 hours in 5% CO2; for IC90: Enterococcus faecalis
Description: (§2) The plates were incubated at 37° C. […] Enterococcus faecalis, Streptococcus pneumonia: Todd Hewitt medium; incubation for 20-24 hours in 5% CO2.

[13] = tested on: Bacillus subtilis; experiment: In-vitro test against several bacteria (D.1.3): B. subtilis; conditions: read-out: IC90 against B. subtilis
[14] = tested on: Mycobacterium smegmatis; experiment: In-vitro test against several bacteria (D.1.3): M. smegmatis; format: cell-based; conditions: Mycolicibacterium smegmatis; Mueller Hinton medium; 48 hours aerobic
Description: The plates were incubated at 37° C. […] Mycobacterium smegmatis: Mueller Hinton medium; incubation for 48 hours in aerobic conditions.

[15] = tested on: Streptococcus pneumonia; experiment: In-vitro test against several bacteria (D.1.3): S. pneumonia; format: cell-based; conditions: Gram positive, Todd Hewitt medium, 20-24 hours in 5% CO2; for IC90: Streptococcus pneumoniae
Description: as §2

[16] = Gram positive, Mueller Hinton medium, 20-24 hours aerobic

Structure (SMILES) | melting point [°C] | IC90 [1] [µg/mL] | IC90 [2] [µg/mL] | IC90 [3] [µg/mL] | IC90 [4] [µg/mL] | IC90 [5] [µg/mL] | IC90 [6] [µg/mL] | IC90 [7] [µg/mL] | IC90 [8] [µg/mL] | IC90 [9] [µg/mL] | IC90 [10] [µg/mL] | IC90 [11] [µg/mL] | IC90 [12] [µg/mL] | IC90 [13] [µg/mL] | IC90 [14] [µg/mL] | IC90 [15] [µg/mL] | further results
CNc1nc(NCCCN[C@@H]2CCOc3c(Br)cc(Br)cc32)nc2c(Cl)cnn12 [(3)] | 108.8 to 118.6 | – | – | – | – | – | – | – | – | – | – | – | – | – | – | – | –
Nc1nc(NCCCN[C@@H]2CCOc3c(Br)cc(Br)cc32)nc2c(Cl)cnn12 [(4)] | 78.7 to 94.1 | – | – | – | – | – | – | – | – | – | – | – | – | – | – | – | –
Cl.Oc1nc(NCCCN[C@@H]2CCOc3c(Br)cc(Br)cc32)nc2ccnn12 [Compound (2)] | 234.6 to 235.6 | > 31 | > 64 | > 64 | 15 | 2 | 8 to 15 | > 75 | 0.5 | 2 | 7 to 13 | 16 | 1.5 | 4 | > 31 | > 31 | IC90 against S. pneumonia [15]: >31 µg/mL
O=c1cc(NCCCN[C@@H]2CCOc3c(Br)cc(Br)cc32)[nH]c2ccsc12 [REP3123, 5-[3-((R)(+)-6,8-dibromo-chroman-4-ylamino)-propylamino]-4H-thieno[3,2-b]pyridine-7-one] | – | > 32 | > 64 | > 64 | < 0.25 | 0.12 (≈ 0.234 µM) | < 0.25 | > 78 | 0.25 (≈ 0.487 µM) | 0.5 to 1 (≈ 0.974 to 1.95 µM) | < 0.25 | 16 (≈ 31.2 µM) | < 0.25 | 0.12 (≈ 0.234 µM) | 6 to 8 (≈ 11.7 to 15.6 µM) | 1 (≈ 1.95 µM) | IC90 against S. epidermidis [4, 16]: <0.25 µg/mL; IC90 against S. aureus [6, 16]: <0.25 µg/mL; IC90 against Methicillin-Resistant S. aureus [10, 16]: <0.25 µg/mL; IC90 against E. faecalis [12]: <0.25 µg/mL
